From PubChem BioAssay AID248 (DTP/NCI, 2004)
Toxic doses and inconclusive results are not listed. No stated cut-off is given here; in the data, active means T/C of 150% or more; inactive means T/C below 125%.

Test system: L1210 leukemia ip in BDF1 mice, survival T/C
Assay: NCI In Vivo Anticancer Drug Screen. Data for tumor model L1210 Leukemia (intraperitoneal) in B6D2F1 (BDF1) mice
Conditions: endpoint: mean survival time, higher = longer survival
Procedure, shortened: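 Mice bearing the transplanted tumor received compound or vehicle. Survival of the treated group was divided by that of the vehicle-treated control group to give the ratio.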

[1] = dose: 50.0 mg/kg/injection, schedule: Q04DX003 (ip), vehicle: saline
[2] = dose: 100.0 mg/kg/injection, schedule: Q04DX003 (ip), vehicle: saline
[3] = dose: 100.0 mg/kg/injection, schedule: Q04DX002 (ip), vehicle: saline with Tween-80
[4] = dose: 100.0 mg/kg/injection, schedule: Q01DX001 (ip), vehicle: Klucel (hydroxypropylcellulose) (HPC)
[5] = dose: 100.0 mg/kg/injection, schedule: Q04DX003 (ip), vehicle: Klucel (hydroxypropylcellulose) (HPC)
[6] = dose: 200.0 mg/kg/injection, schedule: Q01DX001 (ip), vehicle: Klucel (hydroxypropylcellulose) (HPC)
[7] = dose: 200.0 mg/kg/injection, schedule: Q04DX003 (ip), vehicle: Klucel (hydroxypropylcellulose) (HPC)
[8] = dose: 400.0 mg/kg/injection, schedule: Q01DX001 (ip), vehicle: Klucel (hydroxypropylcellulose) (HPC)
[9] = dose: 400.0 mg/kg/injection, schedule: Q04DX003 (ip), vehicle: Klucel (hydroxypropylcellulose) (HPC)
[10] = dose: 100.0 mg/kg/injection, schedule: Q01DX001 (ip), vehicle: other
[11] = dose: 200.0 mg/kg/injection, schedule: Q01DX001 (ip), vehicle: other
[12] = dose: 400.0 mg/kg/injection, schedule: Q01DX001 (ip), vehicle: other
[13] = dose: 100.0 mg/kg/injection, schedule: Q01DX001 (ip), vehicle: carboxymethylcellulose (CMC)
[14] = dose: 200.0 mg/kg/injection, schedule: Q01DX001 (ip), vehicle: saline
[15] = dose: 200.0 mg/kg/injection, schedule: Q04DX003 (ip), vehicle: saline
[16] = dose: 100.0 mg/kg/injection, schedule: Q01DX009 (ip), vehicle: Klucel (hydroxypropylcellulose) (HPC)
[17] = dose: 200.0 mg/kg/injection, schedule: Q01DX009 (ip), vehicle: Klucel (hydroxypropylcellulose) (HPC)
[18] = dose: 400.0 mg/kg/injection, schedule: Q01DX009 (ip), vehicle: Klucel (hydroxypropylcellulose) (HPC)

Measured: T/C

O=C1Nc2c(Cl)cccc2C1=O
inactive: dose: 25.0 mg/kg/injection, schedule: Q01DX009 (ip), vehicle: saline 92 % of control | dose: 25.0 mg/kg/injection, schedule: Q04DX003 (ip), vehicle: saline 98 % of control | dose: 50.0 mg/kg/injection, schedule: Q01DX009 (ip), vehicle: saline 94 % of control | [1] 98 % of control | dose: 100.0 mg/kg/injection, schedule: Q01DX009 (ip), vehicle: saline 92 % of control | [2] 96 % of control

O=[N+]([O-])C1CC(Cl)CCC1SSC1CCC(Cl)CC1[N+](=O)[O-] (stereo unspecified)
inactive: [3] 95 % of control | dose: 200.0 mg/kg/injection, schedule: Q04DX002 (ip), vehicle: saline with Tween-80 98 % of control | dose: 400.0 mg/kg/injection, schedule: Q04DX002 (ip), vehicle: saline with Tween-80 92 % of control

O=C1c2ccccc2C(=O)N1C1C=CC=CC=C1
inactive: [4] 95 % of control | [5] 91 % of control | [6] 93 % of control | [7] 91 % of control | [8] 90 % of control | [9] 93 % of control

CC1(C)CCC(=O)C=C1c1c[nH]c2ccccc12
inactive: [10] 88 % of control | [11] 88 % of control | [12] 97 % of control

COc1ccc(C(=C(CC(=O)O)C(=O)OC(C)(C)C)c2ccc(OC)c(OC)c2)cc1OC
inactive: [13] 96 % of control | dose: 100.0 mg/kg/injection, schedule: Q01DX009 (ip), vehicle: carboxymethylcellulose (CMC) 91 % of control | dose: 200.0 mg/kg/injection, schedule: Q01DX001 (ip), vehicle: carboxymethylcellulose (CMC) 97 % of control | dose: 200.0 mg/kg/injection, schedule: Q01DX009 (ip), vehicle: carboxymethylcellulose (CMC) 95 % of control | dose: 400.0 mg/kg/injection, schedule: Q01DX001 (ip), vehicle: carboxymethylcellulose (CMC) 94 % of control | dose: 400.0 mg/kg/injection, schedule: Q01DX009 (ip), vehicle: carboxymethylcellulose (CMC) 91 % of control | dose: 600.0 mg/kg/injection, schedule: Q01DX009 (ip), vehicle: carboxymethylcellulose (CMC) 91 % of control

CC1(C)C(=O)C(C)(C)C1O
inactive: [1] 95 % of control | dose: 75.0 mg/kg/injection, schedule: Q01DX001 (ip), vehicle: acetone 106 % of control | dose: 100.0 mg/kg/injection, schedule: Q01DX001 (ip), vehicle: saline 97 % of control | [2] 93 % of control | dose: 150.0 mg/kg/injection, schedule: Q01DX001 (ip), vehicle: acetone 104 % of control | [14] 111 % of control | [15] 87 % of control | dose: 300.0 mg/kg/injection, schedule: Q01DX001 (ip), vehicle: acetone 106 % of control

CC(=O)OC1C2C=CC(C2)C1OC(C)=O (stereo unspecified)
inactive: [10] 100 % of control | [11] 106 % of control | [12] 112 % of control

Cc1nc(C)c(C)s1
inactive: [16] 95 % of control | [5] 102 % of control | [17] 95 % of control | [7] 100 % of control | [18] 90 % of control | [9] 104 % of control

O=C1NC(=O)c2ccc(Br)c3cccc1c23
inactive: dose: 100.0 mg/kg/injection, schedule: Q04DX002 (ip), vehicle: Klucel (hydroxypropylcellulose) (HPC) 96 % of control | dose: 200.0 mg/kg/injection, schedule: Q04DX002 (ip), vehicle: Klucel (hydroxypropylcellulose) (HPC) 96 % of control | dose: 400.0 mg/kg/injection, schedule: Q04DX002 (ip), vehicle: Klucel (hydroxypropylcellulose) (HPC) 93 % of control

CCCCCCCC/C=C\CCCCCCCC(=O)OCC
inactive: dose: 100.0 mg/kg/injection, schedule: Q01DX001 (ip), vehicle: saline with Tween-80 98 % of control | dose: 200.0 mg/kg/injection, schedule: Q01DX001 (ip), vehicle: saline with Tween-80 107 % of control | dose: 400.0 mg/kg/injection, schedule: Q01DX001 (ip), vehicle: saline with Tween-80 95 % of control

COc1cc(OC)c(/C=C/c2cc3c4ccccc4ccc3[n+](C)c2)c(OC)c1
inactive: dose: 6.25 mg/kg/injection, schedule: Q01DX001 (ip), vehicle: saline with Tween-80 104 % of control | dose: 12.5 mg/kg/injection, schedule: Q01DX001 (ip), vehicle: saline with Tween-80 107 % of control

O=C(/C=C/c1ccc(Cl)cc1)CCN1CCC2CCC(C2)C1 (stereo unspecified)
inactive: dose: 50.0 mg/kg/injection, schedule: Q01DX001 (ip), vehicle: carboxymethylcellulose (CMC) 92 % of control | [13] 95 % of control

Cc1cc(O)c(CN(C)C)cc1O
inactive: dose: 75.0 mg/kg/injection, schedule: Q01DX001 (ip), vehicle: saline 103 % of control | dose: 150.0 mg/kg/injection, schedule: Q01DX001 (ip), vehicle: saline 104 % of control

COc1ccc(-n2cnc3c(=O)[nH]c(N)nc32)cc1
inactive: [14] 92 % of control

CC1C(O)C(O)CC2COCC21 (stereo unspecified)
inactive: dose: 100.0 mg/kg/injection, schedule: Q01DX001 (ip), vehicle: saline sonified 91 % of control | dose: 200.0 mg/kg/injection, schedule: Q01DX001 (ip), vehicle: saline sonified 107 % of control | dose: 400.0 mg/kg/injection, schedule: Q01DX001 (ip), vehicle: saline sonified 113 % of control

COc1ccc(NC(=O)CC(C)C(=O)O)cc1 (stereo unspecified)
inactive: dose: 100.0 mg/kg/injection, schedule: Q01DX009 (ip), vehicle: saline with Tween-80 102 % of control | dose: 200.0 mg/kg/injection, schedule: Q01DX009 (ip), vehicle: saline with Tween-80 90 % of control | dose: 400.0 mg/kg/injection, schedule: Q01DX009 (ip), vehicle: saline with Tween-80 104 % of control

CCCCCCCCCCCCOc1ccc(Sc2ccc([N+](=O)[O-])cc2)cc1
inactive: [4] 95 % of control | [6] 87 % of control | [8] 90 % of control

CC1(C)C=C(C(Br)c2cccc(Cl)c2)C(=O)c2ccccc21 (stereo unspecified)
inactive: [16] 101 % of control | [5] 109 % of control | [17] 104 % of control | [7] 106 % of control | [18] 106 % of control | [9] 104 % of control

CCOC(=O)CSC(=S)SCC(=O)OCC
inactive: [2] 104 % of control | [15] 105 % of control | dose: 400.0 mg/kg/injection, schedule: Q04DX003 (ip), vehicle: saline 107 % of control

CCCNC(=O)Nc1ccc(Nc2ccccc2)cc1
inactive: [16] 105 % of control | [17] 103 % of control | [18] 94 % of control

CC([NH-])C(=O)O.CC([NH-])C(=O)O.CC([NH-])C(=O)O.[Co+3] (stereo unspecified)
inactive: dose: 25.0 mg/kg/injection, schedule: Q04DX002 (ip), vehicle: saline with Tween-80 115 % of control | dose: 50.0 mg/kg/injection, schedule: Q01DX009 (ip), vehicle: water 103 % of control | dose: 50.0 mg/kg/injection, schedule: Q04DX002 (ip), vehicle: saline with Tween-80 98 % of control | dose: 100.0 mg/kg/injection, schedule: Q01DX009 (ip), vehicle: water 118 % of control | [3] 115 % of control
